Legend:
[1] = system: MRSA (GRE2272); experiment: Antibacterial activity (growth inhibition, EC50); type: cell-based; conditions: Staphylococcus aureus, LB medium, 37°C, OD560, read-out: EC50
From the text: (§1) A.S. Mankin (University of Illinois). E. coli ΔtolC strain BL21 DE3 with impaired AcrAB-TolC, a proton-dependent MDR efflux pump causing multidrug resistance, was offered by Dr D.N. Wilson (University of Munich) and included in our study to test if this mechanism of resistance affects the efficacy of CAM dimers. […] I. Spiliopoulou (National Reference Laboratory for Staphylococci, School of Medicine, University of Patras, Greece). Finally, E. coli strain Rosetta(DE3)pLysS, containing a chloramphenicol resistant gene in the pLysS plasmid, was purchased from Novagen and was also included in our study. Briefly, S. aureus or E. coli cells (200 μl of a 0.700 OD560 preculture) containing wild-type or mutant ribosomes were added in 3.8 ml of LB (Luria-Bertani) medium and grown at 37°C in the presence or absence of CAM or CAM dimers until the optical density of the control culture (grown in the absence of drug) reached the value 0.700 at 560 nm. For E. faecium and P. aeruginosa cultures, TSB (Tryptic Soy Broth) medium was used, instead of LB medium, in order to achieve exponential doubling times between 25 and 35 minutes. From dose-response curves, the half-maximal effective concentration (EC50) for each compound and strain was estimated. EC50 represents the molar concentration of a compound that produces 50% of the maximal possible effect. The EC50 values were mathematically determined by non linear regression fitting of the observed culture optical-density values, expressed as the percentage of 0.700 (y), into Hill Equation, y=min+max−min/1+(x/EC50)^−n where min and max are the lowest and highest observed values of the culture optical density, respectively, x the concentration of the tested compound, and n the Hill coefficient that represents the largest absolute value of the curve slope. EC50 is equal to the x- value of the sigmoid’s midpoint. Fitting was performed using the Four Parameter Logistic Curve of the SigmaPlot Program Version 11.0 (Systat Software, Inc) for Exact Graphs and Data Analysis.

[2] = system: MRSA (GRE2691); experiment: Antibacterial activity (growth inhibition, EC50); type: cell-based; conditions: Staphylococcus aureus, LB medium, 37°C, OD560, read-out: EC50
From the text: as §1

[3] = system: S. aureus (WT); experiment: Antibacterial activity (growth inhibition, EC50); type: cell-based; conditions: Staphylococcus aureus; LB medium, 37°C, OD560; read-out: EC50
From the text: as §1

[4] = system: E. faecium (GRE5152); experiment: Antibacterial activity (growth inhibition, EC50); type: cell-based; conditions: Enterococcus faecium; TSB medium, 37°C, OD560; read-out: EC50
From the text: as §1

[5] = system: E. coli Rosetta(DE3)pLysS; experiment: Antibacterial activity (growth inhibition, EC50); type: cell-based, Escherichia coli; conditions: Escherichia coli
From the text: as §1

[6] = system: E. coli (A2058G); experiment: Antibacterial activity (growth inhibition, EC50); type: cell-based, Escherichia coli; conditions: Escherichia coli
From the text: as §1

[7] = system: E. coli (ΔtolC); experiment: Antibacterial activity (growth inhibition, EC50); type: cell-based, Escherichia coli; conditions: Escherichia coli, BL21-DE3
From the text: as §1

[8] = system: E. coli (WT); experiment: Antibacterial activity (growth inhibition, EC50); type: cell-based, Escherichia coli; conditions: for EC50: Escherichia coli, LB medium, 37°C, OD560
From the text: as §1

[9] = system: E. coli (A2503C); experiment: Antibacterial activity (growth inhibition, EC50); type: cell-based, Escherichia coli; conditions: Escherichia coli
From the text: as §1

[10] = system: P. aeruginosa (GRE5288); experiment: Antibacterial activity (growth inhibition, EC50); type: cell-based, Pseudomonas aeruginosa; conditions: Pseudomonas aeruginosa; TSB medium; clinical isolate with MexAB-OprM and MexXY efflux; read-out: EC50
From the text: as §1

[11] = system: post-translocation ribosomal complex (complex C) derived from E. coli; experiment: Inhibition of peptide-bond formation (puromycin reaction, AcPhe-puromycin synthesis); type: biochemical; conditions: for Ki: 25°C, buffer A; for activity compared to CAM: ranking by K i*; for k6 / k6/k7 / k7: S1 Table
Description: The inhibitory effect of CAM dimers on peptide-bond formation was studied using the puromycin reaction, a model reaction between puromycin and a post-translocation ribosomal complex (complex C) derived from E. coli. Since puromycin, a pseudo-substrate of PTase which binds to the A-site of the catalytic center, was present in excess, the reaction obeyed first-order kinetics. The first-order rate constant, k obs, at each concentration of puromycin was determined by fitting the x values into Eq 1, ln100/100−x=kobst (1) where x is the product AcPhe-puromycin, expressed as the percentage of complex C added in the reaction mixture, and t is the time of the reaction.
A representative time plot obtained at 400 μM puromycin, in the absence of inhibitor, is illustrated in Fig 3A (upper line) and, as expected, is characterized by linearity. However, when the reaction proceeded in the presence of a CAM dimer, e.g. compound 5, the time plots were characterized by two unique features that distinguish them from a typical kinetic behavior. […] Second, the slopes of both progress curves varied as a function of the inhibitor concentration (Fig 3A, four lower curves). […] These kinetic results are consistent with compound 5 operating through an induced fit mechanism (Fig 3C), in which the inhibitor first binds rapidly to complex C to form the encounter complex CI, which then undergoes a slow conformational change to produce a final, tighter complex C*I. Corroborative evidence for the consistency of this model is provided by the hyperbolic shape of the equilibration plots (k eq versus [I]), in which k eq represents the apparent rate constant for the attainment of equilibrium among C, CI, and C*I (Fig 3B). If one-step mechanism of inhibition was applicable (C + I ⇄ C*I), k eq should be a linear function of [I] [27]. […] Because the isomerization constant k on/k off was calculated to be 3.6, the inhibition process was finally associated with high overall inhibition of peptide-bond formation (Ki* = 0.3 μM; S1 Fig, panel C). In addition, the slow k off rate (0.64 min^-1) provided prolonged residence time for compound 5 at the ribosome, a behavior potentially predicting good efficacy in vivo [28].
The puromycin reaction, i.e. the reaction between complex C and excess puromycin (S), was carried out at 25°C in buffer A [100 mM Tris-HCl pH 7.2, 6 mM (CH3COO)2Mg, 100 mM NH4Cl and 6 mM 2-mercaptoethanol]. Under these conditions, the puromycin reaction obeys C + S ⇄KS CS→kcat C^′ + S pseudo-first-order kinetics and was analyzed as previously described.
In the presence of CAM dimers, biphasic semi-logarithmic time plots were obtained. The slope of the straight line through the origin was seen as the value of the apparent rate constant, k obs(early), at the early phase of the reaction. Similarly, the slope of the second straight line was taken as the apparent rate constant, k obs(late), at the late phase of the puromycin reaction.

O=C(CCCCCCCC(=O)N[C@H](CO)[C@H](O)c1ccc([N+](=O)[O-])cc1)N[C@H](CO)[C@H](O)c1ccc([N+](=O)[O-])cc1 [Compound 7, N^1,N^9-Bis((1R,2R)-1,3-dihydroxy-1-(4-nitrophenyl)propan-2-yl)nonanediamide]
EC50 [1]: > 200 µM | EC50 [2]: > 200 µM | EC50 [3]: 72.7 ± 11.8 µM | EC50 [4]: > 200 µM | melting point: 137 to 139 °C | EC50 [5]: > 200 µM | EC50 [6]: > 200 µM | EC50 [7]: > 200 µM | EC50 [8]: > 200 µM | EC50(cell growth)/IC50(puro) ([8]; wild-type E. coli, IC50(puro) calculated from Ki* at 2 mM puromycin): >11.9 | EC50 [9]: > 200 µM | EC50 [10]: > 100 µM | Ki ([11]; encounter complex CI): 12 ± 1.2 µM | k off ([11]; nonlinear regression of k eq): 0.014 ± 0.001 s⁻¹ | Ki ([11]; overall inhibition constant (CI + C*I)): 2.8 ± 0.27 µM | activity compared to CAM [11]: lower

O=C(/C=C/c1ccc(/C=C/C(=O)N[C@H](CO)[C@H](O)c2ccc([N+](=O)[O-])cc2)cc1)N[C@H](CO)[C@H](O)c1ccc([N+](=O)[O-])cc1 [Compound 8, N,N^’-Bis((1R,2R)-1,3-dihydroxy-1-(4-nitrophenyl)propan-2-yl)-1,4-phenylene diacryldiamide]
EC50 [1]: > 200 µM | EC50 [2]: > 200 µM | EC50 [3]: > 200 µM | EC50 [4]: > 200 µM | melting point: 144 to 145 °C | EC50 [5]: > 200 µM | EC50 [6]: > 200 µM | EC50 [7]: > 200 µM | EC50 [8]: > 200 µM | EC50 [9]: > 200 µM | EC50 [10]: > 100 µM | activity compared to CAM [11]: no activity

O=C(O)CCCC(=O)N[C@H](CO)[C@H](O)c1ccc([N+](=O)[O-])cc1 [Compound 9, 5-(((1R,2R)-1,3-dihydroxy-1-(4-nitrophenyl)propan-2-yl)amino)-5-oxopentanoic acid]
k6 [11]: 2.50 ± 0.33 min⁻¹ | k6/k7 [11]: 1.53 ± 0.18 | k7 [11]: 1.63 ± 0.12 min⁻¹

O=C(O)CCCCC(=O)N[C@H](CO)[C@H](O)c1ccc([N+](=O)[O-])cc1 [Compound 10, 6-(((1R,2R)-1,3-dihydroxy-1-(4-nitrophenyl)propan-2-yl)amino)-6-oxohexanoic acid]
k6 [11]: 2.52 ± 0.40 min⁻¹ | k6/k7 [11]: 2.25 ± 0.27 | k7 [11]: 1.11 ± 0.12 min⁻¹

O=C(O)c1ccc(C(=O)N[C@H](CO)[C@H](O)c2ccc([N+](=O)[O-])cc2)cc1 [Compound 11, 4-(((1R,2R)-1,3-dihydroxy-1-(4-nitrophenyl)propan-2-yl)carbamoyl)benzoic acid]
k6 [11]: 2.31 ± 0.48 min⁻¹ | k6/k7 [11]: 1.63 ± 0.31 | k7 [11]: 1.42 ± 0.13 min⁻¹

Reference: PMC4533973, “Synthesis and Evaluation of Chloramphenicol Homodimers: Molecular Target, Antimicrobial Activity, and Toxicity against Human Cells” (PLoS ONE, 2015)
